Measurements published in ChEMBL document CHEMBL5321278, “Discovery of Aminoratjadone Derivatives as Potent Noncovalent CRM1 Inhibitors” (J Med Chem, 2023).
Values belong to the compound of their own block, whether it stands above or below them. Active and inactive are the calls of the source. The calls are words filed in the database; no cut-off is given here. Where a SMILES comes first, the peptide text is derived from it. The star is where a group is joined. Cbz = O=C(OCc1ccccc1)*

How the values were obtained:
Exportin-1 [1] = target: T1, Exportin-1 (Homo sapiens, UniProt O14980); test: Inhibition of CRM1 nuclear export in human HeLa cells assessed as CRM1 depletion at 10 uM measured after 6 hrs; format: cell-based
T1 sequence (O14980 whole entry): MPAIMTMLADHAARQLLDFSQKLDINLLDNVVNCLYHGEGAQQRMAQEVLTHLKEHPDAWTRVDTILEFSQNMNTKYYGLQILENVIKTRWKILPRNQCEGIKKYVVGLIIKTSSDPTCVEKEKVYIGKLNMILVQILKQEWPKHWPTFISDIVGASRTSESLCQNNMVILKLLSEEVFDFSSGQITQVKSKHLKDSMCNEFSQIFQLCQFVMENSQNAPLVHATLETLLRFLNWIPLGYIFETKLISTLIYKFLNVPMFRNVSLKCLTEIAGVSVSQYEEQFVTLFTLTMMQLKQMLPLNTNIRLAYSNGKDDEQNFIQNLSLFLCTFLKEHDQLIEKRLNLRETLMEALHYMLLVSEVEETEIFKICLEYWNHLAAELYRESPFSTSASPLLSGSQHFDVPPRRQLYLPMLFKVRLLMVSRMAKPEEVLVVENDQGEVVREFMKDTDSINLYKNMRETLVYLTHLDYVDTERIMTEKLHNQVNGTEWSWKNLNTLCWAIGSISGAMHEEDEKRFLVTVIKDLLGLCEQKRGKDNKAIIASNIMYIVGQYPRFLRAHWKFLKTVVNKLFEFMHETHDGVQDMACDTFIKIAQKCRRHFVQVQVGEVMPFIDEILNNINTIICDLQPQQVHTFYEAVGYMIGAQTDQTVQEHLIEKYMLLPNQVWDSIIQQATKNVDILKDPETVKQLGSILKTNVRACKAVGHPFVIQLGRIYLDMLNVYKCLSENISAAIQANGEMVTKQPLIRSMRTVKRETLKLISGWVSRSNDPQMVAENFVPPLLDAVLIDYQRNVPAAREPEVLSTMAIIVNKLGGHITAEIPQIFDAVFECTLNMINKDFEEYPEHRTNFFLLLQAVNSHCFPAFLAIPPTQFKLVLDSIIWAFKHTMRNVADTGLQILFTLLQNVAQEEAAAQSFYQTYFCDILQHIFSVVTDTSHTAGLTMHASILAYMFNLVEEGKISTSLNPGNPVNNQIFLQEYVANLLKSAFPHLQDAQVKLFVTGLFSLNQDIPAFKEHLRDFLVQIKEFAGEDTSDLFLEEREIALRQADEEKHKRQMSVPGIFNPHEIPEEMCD

[2] = test system: Exportin-1 (Homo sapiens), O14980 [C528S]; test: Inhibition of CRM1 C528S mutant-mediated nuclear export in human HCT-116 cells assessed as inhibition of nuclear export of cargoes at 1 uM; format: cell-based
Exportin-1 (Homo sapiens), O14980 [C528S], sequence (O14980 whole entry C528S): as the sequence (O14980 whole entry) above, with C528S counted along it

HCT-116 [3] = test: Cytotoxicity against SiRNA mediated CRM1 knockdown human HCT-116 cells assessed as reduction in cell viability at 0.3 to 1 uM incubated for 72 hrs by CCK-8 assay; format: functional, cell-based; settings: dose 0.3-1 µM
Exportin-1 [4] = target: T1, Exportin-1; test: Inhibition of CRM1-mediated nuclear export in human HCT-116 cells assessed as inhibition of nuclear export of cargoes at 1 uM; format: cell-based
HeLa [5] = test: Downregulation of CRM1 expression in human HeLa cells at 9 uM incubated for 6 hrs by Western blot analysis; format: functional, cell-based
Exportin-1 [6] = target: T1, Exportin-1; test: Non-covalent inhibition of CRM1 (unknown origin) assessed as reversal of GST-tagged NES peptide binding
HCT-116 [7] = test: Cytotoxicity against human HCT-116 cells assessed as reduction in cell viability incubated for 72 hrs by CCK-8 assay; format: functional, cell-based; settings: HCT-116, 72 h
Exportin-1 [8] = target: T1, Exportin-1; test: Inhibition of CRM1 nuclear export in human HeLa cells assessed as CRM1 depletion measured after 6 hrs; format: cell-based; settings: for inhibition: dose 0.1-9 µM
Exportin-1 [9] = target: T1, Exportin-1; test: Inhibition of CRM1 (unknown origin) assessed as binding of GST-tagged NES peptide
[10] = test system: Exportin-1 (Homo sapiens), O14980 [C528S]; test: Inhibition of CRM1 C528S mutant-mediated nuclear export in human HeLa cells expressing mCherry-tagged NES reporter at 1 uM incubated for 3 hrs by confocal microscopy analysis; format: cell-based
RKO [11] = test: Cytotoxicity against human RKO cells assessed as reduction in cell viability incubated for 72 hrs by CCK-8 assay; format: functional, cell-based
Exportin-1 [12] = target: T1, Exportin-1; test: Inhibition of CRM1-mediated nuclear export in human HeLa cells expressing mCherry-tagged NES reporter incubated for 3 hrs by confocal microscopy analysis; format: cell-based; settings: for inhibition: dose 0.09-3 µM
RKO [13] = test: Cytotoxicity against SiRNA mediated CRM1 knockdown human RKO cells assessed as reduction in cell viability at 0.3 to 1 uM incubated for 72 hrs by CCK-8 assay; format: functional, cell-based; settings: dose 0.3-1 µM
HeLa [14] = test: Downregulation of CRM1 mRNA expression in human HeLa cells at 9 uM incubated for 6 hrs; format: functional, cell-based
Exportin-1 [15] = target: T1, Exportin-1; test: Non-covalent inhibition of CRM1 (unknown origin) assessed as reversal of GST-tagged NES peptide binding pretreated with CRM1 followed by compound addition and measured after 2 hrs
Exportin-1 [16] = target: T1, Exportin-1; test: Inhibition of CRM1 nuclear export in human HeLa cells assessed as CRM1 depletion at 1 uM measured after 6 hrs; format: cell-based
RKO [17] = test: Induction of apoptosis in human RKO cells assessed as late apoptotic at 1 uM measured after 24 hrs by AnnexinV-FITC/propidium iodide staining based flow cytometric analysis (reference value: 4.70%); format: functional
HCT-116 [18] = test: Induction of apoptosis in human HCT-116 cells assessed as necrotic at 1 uM measured after 24 hrs by AnnexinV-FITC/propidium iodide staining based flow cytometric analysis (reference value: 2.22%); format: functional
RKO [19] = test: Induction of apoptosis in human RKO cells assessed as necrotic at 0.5 uM measured after 24 hrs by AnnexinV-FITC/propidium iodide staining based flow cytometric analysis (reference value: 1%); format: functional
HCT-116 [20] = test: Induction of apoptosis in human HCT-116 cells assessed as viable cells at 1 uM measured after 24 hrs by AnnexinV-FITC/propidium iodide staining based flow cytometric analysis (reference value: 89.32%); format: functional; settings: read-out: Activity
RKO [21] = test: Induction of apoptosis in human RKO cells assessed as early apoptotic at 1 uM measured after 24 hrs by AnnexinV-FITC/propidium iodide staining based flow cytometric analysis (reference value: 1.79%); format: functional
RKO [22] = test: Inhibition of colony formation in human RKO cells assessed as decrease in colonies upto 0.5 uM incubated for 72 hrs by crystal violet staining based assay; format: functional, cell-based
HCT-116 [23] = test: Induction of apoptosis in human HCT-116 cells assessed as viable cells at 0.5 uM measured after 24 hrs by AnnexinV-FITC/propidium iodide staining based flow cytometric analysis (reference value: 89.32%); format: functional; settings: read-out: Activity
HCT-116 [24] = test: Induction of apoptosis in human HCT-116 cells assessed as increase in cleaved PARP-1 level by Western blot analysis; format: functional, cell-based
RKO [25] = test: Induction of apoptosis in human RKO cells assessed as necrotic at 1 uM measured after 24 hrs by AnnexinV-FITC/propidium iodide staining based flow cytometric analysis (reference value: 1%); format: functional
RKO [26] = test: Induction of apoptosis in human RKO cells assessed as early apoptotic at 0.5 uM measured after 24 hrs by AnnexinV-FITC/propidium iodide staining based flow cytometric analysis (reference value: 1.79%); format: functional
HCT-116 [27] = test: Induction of apoptosis in human HCT-116 cells assessed as late apoptotic at 1 uM measured after 24 hrs by AnnexinV-FITC/propidium iodide staining based flow cytometric analysis (reference value: 4.91%); format: functional
RKO [28] = test: Induction of apoptosis in human RKO cells assessed as viable cells at 1 uM measured after 24 hrs by AnnexinV-FITC/propidium iodide staining based flow cytometric analysis (reference value: 92.51%); format: functional; settings: read-out: Activity
RKO [29] = test: Induction of apoptosis in human RKO cells assessed as late apoptotic at 0.5 uM measured after 24 hrs by AnnexinV-FITC/propidium iodide staining based flow cytometric analysis (reference value: 4.70%); format: functional
RKO [30] = test: Induction of apoptosis in human RKO cells assessed as increase in cleaved PARP-1 level by Western blot analysis; format: functional, cell-based
RKO [31] = test: Induction of apoptosis in human RKO cells assessed as viable cells at 0.5 uM measured after 24 hrs by AnnexinV-FITC/propidium iodide staining based flow cytometric analysis (reference value: 92.51%); format: functional; settings: read-out: Activity
HCT-116 [32] = test: Induction of apoptosis in human HCT-116 cells assessed as necrotic at 0.5 uM measured after 24 hrs by AnnexinV-FITC/propidium iodide staining based flow cytometric analysis (reference value: 2.22%); format: functional
Exportin-1 [33] = target: T1, Exportin-1; test: Binding affinity to CRM1 (unknown origin) assessed as dissociation constant by microscale thermophoresis assay
HCT-116 [34] = test: Inhibition of colony formation in human HCT-116 cells assessed as decrease in colonies upto 0.5 uM incubated for 72 hrs by crystal violet staining based assay; format: functional, cell-based
HCT-116 [35] = test: Induction of apoptosis in human HCT-116 cells assessed as early apoptotic at 0.5 uM measured after 24 hrs by AnnexinV-FITC/propidium iodide staining based flow cytometric analysis (reference value: 3.55%); format: functional
HCT-116 [36] = test: Induction of apoptosis in human HCT-116 cells assessed as late apoptotic at 0.5 uM measured after 24 hrs by AnnexinV-FITC/propidium iodide staining based flow cytometric analysis (reference value: 4.91%); format: functional
Exportin-1 [37] = target: T1, Exportin-1; test: Binding affinity to CRM1 in human HCT-116 cells assessed as thermal stabilization at 50 uM at 50 to 68 degreeC incubated for 3 mins by […] analysis; format: cell-based
HCT-116 [38] = test: Induction of apoptosis in human HCT-116 cells assessed as early apoptotic at 1 uM measured after 24 hrs by AnnexinV-FITC/propidium iodide staining based flow cytometric analysis (reference value: 3.55%); format: functional
Exportin-1 [39] = target: T1, Exportin-1; test: Inhibition of CRM1-mediated nuclear export in human HeLa cells expressing mCherry-tagged NES reporter at 1 uM incubated for 3 hrs by confocal microscopy analysis; format: cell-based
Exportin-1 [40] = target: T1, Exportin-1; test: Inhibition of CRM1 nuclear export in human HeLa cells assessed as CRM1 depletion at 50 uM measured after 6 hrs; format: cell-based

inhibition [2]: inactive | inhibition (Exportin-1 [4]): Active | inhibition (Exportin-1 [6]): Active | IC50 (Exportin-1 [8]): 550 nM | inhibition (Exportin-1 [8]): Active | inhibition (Exportin-1 [9]): Active | inhibition [10]: Active | IC50 (Exportin-1 [12]): 340 nM | inhibition (Exportin-1 [12]): Dose-Dependent Effect | inhibition (Exportin-1 [15]): Active
Compound: C/C=C/[C@@H]1O[C@H]([C@@H](N)/C=C/C=C(\C)C[C@@H](C)/C=C(C)\C=C\[C@H](O)C[C@H](N)CC(=O)OC)C[C@H](O)[C@@H]1C
Activity (HCT-116 [3]): Active | Activity (HeLa [5]): inactive | IC50 (HCT-116 [7]): 320 nM | IC50 (RKO [11]): 300 nM | Activity (RKO [13]): Active | Activity (HeLa [14]): inactive

inhibition [2]: inactive | inhibition (Exportin-1 [4]): Active | inhibition (Exportin-1 [6]): Active | IC50 (Exportin-1 [8]): 270 nM | inhibition (Exportin-1 [8]): Active | inhibition (Exportin-1 [9]): Active | inhibition [10]: Active | IC50 (Exportin-1 [12]): 280 nM | inhibition (Exportin-1 [12]): Dose-Dependent Effect | Kd (Exportin-1 [33]): 4600 nM | Activity (Exportin-1 [37]): Active
Compound: C/C=C/[C@@H]1O[C@H]([C@H](N)/C=C/C=C(\C)C[C@@H](C)/C=C(C)\C=C\[C@H](O)C[C@H](N)CC(=O)OC)C[C@H](O)[C@@H]1C
Activity (HCT-116 [3]): Active | Activity (HeLa [5]): inactive | Activity (RKO [17]): 18.43% | Activity (HCT-116 [18]): 8.17% | Activity (RKO [19]): 6.09% | viability at 1 µM (HCT-116 [20]): 62.4% | Activity (RKO [21]): 2.78% | inhibition (RKO [22]): Active | IC50 (HCT-116 [7]): 120 nM | viability at 0.5 µM (HCT-116 [23]): 78% | Activity (HCT-116 [24]): Active | Activity (RKO [25]): 7.93% | Activity (RKO [26]): 3.34% | IC50 (RKO [11]): 190 nM | Activity (HCT-116 [27]): 25.08% | viability at 1 µM (RKO [28]): 70.9% | Activity (RKO [29]): 11.78% | Activity (RKO [30]): Active | viability at 0.5 µM (RKO [31]): 78.8% | Activity (HCT-116 [32]): 3.75% | inhibition (HCT-116 [34]): Active | Activity (HCT-116 [35]): 5.73% | Activity (HCT-116 [36]): 12.47% | Activity (RKO [13]): Active | Activity (HeLa [14]): inactive | Activity (HCT-116 [38]): 4.32%

Kd (Exportin-1 [33]): 5900 nM
Compound: C/C=C/[C@@H]1O[C@H]([C@H](N)/C=C/C=C(\C)C[C@@H](C)/C=C(C)\C=C\[C@H](O)C[C@H](N)CC(=O)O)C[C@H](O)[C@@H]1C

Further lines, the compound ahead of its results:

Compound: CCN(CC)CCCC(C)Nc1ccnc2cc(Cl)ccc12 (configuration not stated)
inhibition (Exportin-1 [1]): Active

Compound: C/C=C/[C@@H]1O[C@H]([C@@H](N)/C=C/C=C(\C)C[C@@H](C)/C=C(C)\C=C\[C@H](O)C[C@@H](CC(=O)NCCO)NCCO)C[C@H](O)[C@@H]1C
inhibition (Exportin-1 [16]): inactive | inhibition (Exportin-1 [9]): inactive

Compound: C/C=C/[C@@H]1O[C@H]([C@@H](N)/C=C/C=C(\C)C[C@@H](C)/C=C(C)\C=C\[C@H](O)C[C@H](N)CC(N)=O)C[C@H](O)[C@@H]1C
inhibition (Exportin-1 [16]): inactive | inhibition (Exportin-1 [9]): inactive | inhibition (Exportin-1 [39]): inactive

Compound: O=C(/C=C\n1cnc(-c2cc(C(F)(F)F)cc(C(F)(F)F)c2)n1)NNc1cnccn1
inhibition (Exportin-1 [16]): inactive

Compound: CC(C)C[C@@H](C=O)NC(=O)[C@H](CC(C)C)NC(=O)[C@H](CC(C)C)NC(=O)OCc1ccccc1 (Cbz-Leu-Leu-Leu-aldehyde)
inhibition (Exportin-1 [40]): Active
